Measured values reported in patent US20150274719A1, “AMINO-SUBSTITUTED IMIDAZO[1,2-A]PYRIDINECARBOXAMIDES AND THEIR USE” (BAYER PHARMA AKTIENGESELLSCHAFT, priority 2012, published 2015).
Like-named read-outs stand apart in the source and are kept apart here.

Tests used:
[1] = target: T1, recombinant guanylate cyclase reporter cell line (Rattus norvegicus, UniProt P19686+P20595); test: Action on recombinant guanylate cyclase reporter cell line; assay type: cell-based; conditions: in some cases mean values from individual determinations
T1 construct: expressed in transfected cells; host or cells: recombinant reporter cell line
T1 sequence (P19686 1-690): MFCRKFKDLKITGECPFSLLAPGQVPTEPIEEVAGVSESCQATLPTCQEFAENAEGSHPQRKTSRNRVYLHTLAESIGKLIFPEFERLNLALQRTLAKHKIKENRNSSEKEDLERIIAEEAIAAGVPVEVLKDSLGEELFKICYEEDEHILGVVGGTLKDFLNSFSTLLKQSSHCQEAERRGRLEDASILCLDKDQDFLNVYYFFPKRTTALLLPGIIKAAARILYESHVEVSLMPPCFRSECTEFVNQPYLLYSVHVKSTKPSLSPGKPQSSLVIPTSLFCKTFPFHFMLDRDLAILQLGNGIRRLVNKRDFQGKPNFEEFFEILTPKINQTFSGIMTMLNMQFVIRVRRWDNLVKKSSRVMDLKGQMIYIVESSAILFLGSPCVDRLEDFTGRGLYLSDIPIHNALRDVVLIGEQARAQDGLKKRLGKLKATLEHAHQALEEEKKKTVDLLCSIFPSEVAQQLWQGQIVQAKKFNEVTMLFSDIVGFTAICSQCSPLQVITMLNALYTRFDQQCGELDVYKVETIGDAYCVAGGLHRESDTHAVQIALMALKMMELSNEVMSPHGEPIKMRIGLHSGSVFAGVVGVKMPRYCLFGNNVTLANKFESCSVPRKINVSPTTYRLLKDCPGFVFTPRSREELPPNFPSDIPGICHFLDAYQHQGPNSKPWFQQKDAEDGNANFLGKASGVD
T1 sequence (P20595 1-619): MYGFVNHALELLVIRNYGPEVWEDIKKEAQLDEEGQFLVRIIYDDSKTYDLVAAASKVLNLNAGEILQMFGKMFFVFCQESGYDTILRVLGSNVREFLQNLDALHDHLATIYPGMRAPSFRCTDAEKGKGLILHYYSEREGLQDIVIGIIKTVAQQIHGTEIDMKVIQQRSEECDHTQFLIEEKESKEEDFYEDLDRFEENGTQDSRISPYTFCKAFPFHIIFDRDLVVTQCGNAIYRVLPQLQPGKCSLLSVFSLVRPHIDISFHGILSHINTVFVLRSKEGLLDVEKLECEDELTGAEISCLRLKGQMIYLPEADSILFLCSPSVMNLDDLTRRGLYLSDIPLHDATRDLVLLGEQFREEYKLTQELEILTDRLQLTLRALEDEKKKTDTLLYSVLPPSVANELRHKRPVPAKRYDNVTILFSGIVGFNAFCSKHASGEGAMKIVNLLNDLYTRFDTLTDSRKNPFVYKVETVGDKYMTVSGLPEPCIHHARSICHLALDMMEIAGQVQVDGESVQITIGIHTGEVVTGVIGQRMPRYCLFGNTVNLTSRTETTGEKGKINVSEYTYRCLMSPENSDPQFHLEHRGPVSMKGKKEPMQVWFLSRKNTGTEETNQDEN
Outline: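 Compounds are tested on whole cells carrying a guanylate cyclase reporter construct. The lowest concentration giving an effect is recorded as the MEC.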

[2] = Determination of pharmacokinetic parameters following intravenous and oral administration (rats); assay type: in vivo, male Wistar rats; conditions: intravenous administration in rats
Experimental: B-6. Determination of Pharmacokinetic Parameters Following Intravenous and Oral Administration
The pharmacokinetic parameters of the compounds according to the invention are determined in male CD-1 mice, male Wistar rats and female beagles. Intravenous administration in the case of mice and rats is carried out by means of a species-specific plasma/DMSO formulation, and in the case of dogs by means of a water/PEG400/ethanol formulation. In all species, oral administration of the dissolved substance is performed via gavage, based on a water/PEG400/ethanol formulation. The taking of blood from rats is simplified by inserting a silicone catheter into the right Vena jugularis externa prior to substance administration. The operation is carried out at least one day prior to the experiment with […] and administration of an analgesic (atropin/Rimadyl (3/1) 0.1 ml s.c.). The blood is taken (generally more than 10 time points) within a time window including terminal time points of at least 24 to a maximum of 72 hours after substance administration. When the blood is taken, it is passed into heparinised tubes. Then the blood plasma is obtained by centrifugation and is optionally stored at −20° C. until further processing.
An internal standard (which may also be a chemically unrelated substance) is added to the samples of the compounds according to the invention, calibration samples and qualifiers, and there follows protein precipitation by means of excess acetone. Addition of a buffer solution matched to the LC conditions, and subsequent vortexing, is followed by centrifugation at 1000 g. The supernatant is analysed by LC-MS/MS using C18 reversed-phase columns and variable mobile phase mixtures. The substances are quantified via the peak heights or areas from extracted ion chromatograms of specific selected ion monitoring experiments.
The plasma concentration/time plots determined are used to calculate the pharmacokinetic parameters such as AUC, Cmax, t1/2 (terminal half life), F (bioavailability), MRT (mean residence time) and CL (clearance), using a validated pharmacokinetic calculation program.
Since the substance quantification is carried out in plasma, it is necessary to determine the blood/plasma distribution of the substance in order to be able to adjust the pharmacokinetic parameters correspondingly. For this purpose, a defined amount of substance is incubated in heparinized whole blood of the species in question in a rocking roller mixture for 20 min. After centrifugation at 1000 g, the plasma concentration is measured (by means of LC-MS/MS; see above) and determined by calculating the ratio of the Cblood/Cplasma value.

[3] = male, Wistar, rat, plasma, iv, read-out: MRT

Row | SMILES | MEC (minimal effective concentration) [1] [µM] | AUCnorm [2] [kg·h/L] | CLblood [2] [mL/min/kg] | half-life ([2]; male, Wistar, rat, plasma, iv) [h] | MRT [2, 3] [h] | MRT [2] [h] | t1/2 [2] [h]
1 | CCCC(C)(N)CNC(=O)c1c(C)nc2c(OCc3cccc(F)c3F)cc(C)cn12 (racemic) [Example 303, rac-N-(2-amino-2-methylpentyl)-8-[(2,3-difluorobenzyl)oxy]-2,6-dimethylimidazo[1,2-a]pyridine-3-carboxamide] | 0.20 | 0.26 | 45.7 | 5.7 | 8.2 |  | 
2 | CCC(C)(N)CNC(=O)c1c(C)nc2c(OCc3c(F)cccc3F)cc(Cl)cn12 (single isomer, unassigned) [Example 194, ent-N-(2-Amino-2-methylbutyl)-6-chloro-8-[(2,6-difluorobenzyl)oxy]-2-methylimidazo[1,2-a]-pyridine-3-carboxamide] | 0.10 | 2.06 | 8 | 16.8 | 24.4 |  | 
3 | Cc1nc2c(OCc3c(F)cccc3F)cc(Cl)cn2c1C(=O)NCC(N)C(C)C (single isomer, unassigned) [Example 211, ent-N-(2-Amino-3-methylbutyl)-6-chloro-8-[(2,6-difluorobenzyl)oxy]-2-methylimidazo[1,2-a]-pyridine-3-carboxamide] | 0.30 | 0.78 | 17.8 | 4.8 | 6.6 |  | 
4 | Cc1cc(OCc2c(F)cccc2F)c2nc(C)c(C(=O)NCC(N)C(C)C)n2c1 (single isomer, unassigned) [Example 223, ent-N-(2-Amino-3-methylbutyl)-8-[(2,6-difluorobenzyl)oxy]-2,6-dimethylimidazo[1,2-a]pyridine-3-carboxamide] | 0.30 | 0.87 | 18.2 | 4.8 | 6.1 |  | 
5 | Cc1cc(OCc2c(F)cccc2F)c2nc(C)c(C(=O)NCC(C)(N)CCC(F)(F)F)n2c1 (single isomer, unassigned) [Example 408, ent-N-(2-amino-5,5,5-trifluoro-2-methylpentyl)-8-[(2,6-difluorobenzyl)oxy]-2,6-dimethylimidazo[1,2-a]pyridine-3-carboxamide] | 0.10 | 0.19 | 51.2 | 3.8 | 4.7 |  | 
6 | Cc1cc(OCc2c(F)cccc2F)c2nc(C)c(C(=O)NCC(C)(N)CCC(F)(F)F)n2c1 (single isomer, unassigned) [Example 409, ent-N-(2-amino-5,5,5-trifluoro-2-methylpentyl)-8-[(2,6-difluorobenzyl)oxy]-2,6-dimethylimidazo[1,2-a]pyridine-3-carboxamide] | 0.03 | 0.28 | 35.8 |  |  | 7.4 | 5.8
7 | Cc1cc(OCc2c(F)ccc(F)c2F)c2nc(C)c(C(=O)NCC(C)(N)CCC(F)(F)F)n2c1 (single isomer, unassigned) [Example 410, ent-N-(2-amino-5,5,5-trifluoro-2-methylpentyl)-2,6-dimethyl-8-[(2,3,6-trifluorobenzyl)oxy]imidazo[1,2-a]pyridine-3-carboxamide] | 0.10 | 0.21 | 46.2 | 4.3 |  | 5.4 | 
8 | CCC(C)(N)CNC(=O)c1c(C)nc2c(OCc3c(F)cccc3F)cc(OC)cn12 (single isomer, unassigned; enantiomer a) [Example 279, ent-N-(2-amino-2-methylbutyl)-8-[(2,6-difluorobenzyl)oxy]-6-methoxy-2-methylimidazo[1,2-a]pyridine-3-carboxamide (Enantiomer A)] | 0.3 | 0.42 | 46 | 2.3 | 2.9 |  | 

Other lines, results leading:

Row | MEC (minimal effective concentration) [1] [µM] | AUCnorm [2] [kg·h/L] | CLblood [2] [mL/min/kg] | half-life ([2]; male, Wistar, rat, plasma, iv) [h] | MRT [2, 3] [h] | MRT [2] [h] | t1/2 [2] [h] | SMILES
9 | 0.10 | 0.56 | 20.5 | 6.6 | 8.8 |  |  | CCCC(C)(N)CNC(=O)c1c(C)nc2c(OCc3c(F)ccc(F)c3F)cc(C)cn12 (single isomer, unassigned) [Example 295, ent-N-(2-amino-2-methylpentyl)-2,6-dimethyl-8-[(2,3,6-trifluorobenzyl)oxy]imidazo[1,2-a]pyridine-3-carboxamide]
10 | 0.10 | 0.34 | 37.8 |  |  | 9.4 | 6.2 | CCCC(C)(N)CNC(=O)c1c(C)nc2c(OCc3c(F)ccc(F)c3F)cc(C)cn12 (single isomer, unassigned) [Example 304, ent-N-(2-amino-2-methylpentyl)-2,6-dimethyl-8-[(2,3,6-trifluorobenzyl)oxy]imidazo[1,2-a]pyridine-3-carboxamide]
11 | 0.03 | 0.41 | 25.3 |  |  | 11.2 | 8.2 | Cc1cc(OCc2c(F)ccc(F)c2F)c2nc(C)c(C(=O)NCC(C)(N)CCC(F)(F)F)n2c1 (single isomer, unassigned) [Example 411, ent-N-(2-amino-5,5,5-trifluoro-2-methylpentyl)-2,6-dimethyl-8-[(2,3,6-trifluorobenzyl)oxy]imidazo[1,2-a]pyridine-3-carboxamide]
12 | 0.10 | 1.29 | 11.5 | 5.8 | 8.4 |  |  | CCC(C)(N)CNC(=O)c1c(C)nc2c(OCc3c(F)ccc(F)c3F)cc(C)cn12 (single isomer, unassigned; enantiomer a) [Example 274, ent-N-(2-Amino-2-methylbutyl)-2,6-dimethyl-8-[(2,3,6-trifluorobenzyl)oxy]imidazo[1,2-a]-pyridine-3-carboxamide (Enantiomer A)]
